Values joined by “and” are separate entries in the source; they are usually repeats but may differ in a detail not shown here. Equal entries are not always repeated.

These results are taken from patent US11957687B2 (REGENERON PHARMACEUTICALS, INC., priority 2019, dated 2024).

Chain of HSD17B13 (Q7Z5P4 other isoform, or with tags, fused parts or gaps): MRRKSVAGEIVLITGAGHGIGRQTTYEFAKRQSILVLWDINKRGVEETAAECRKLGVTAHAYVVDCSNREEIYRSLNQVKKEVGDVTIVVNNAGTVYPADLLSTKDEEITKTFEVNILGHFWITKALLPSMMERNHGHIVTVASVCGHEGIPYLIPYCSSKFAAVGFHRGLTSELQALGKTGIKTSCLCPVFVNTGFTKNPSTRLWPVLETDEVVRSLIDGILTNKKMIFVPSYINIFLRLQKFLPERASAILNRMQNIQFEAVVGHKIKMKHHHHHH

This experiment addresses HSD17B13 (Homo sapiens (Human), UniProt Q7Z5P4). The experiment is described as follows: HSD17B13 enzymatic inhibition assay (150 nM or 50 nM HSD17B13). The experiment is classed as biochemical. Conditions: 50 nM HSD17B13; read-out: Inhibition of 50 nM of HSD17B13 IC50.
A word on the IC50: it is the concentration that gives 50% inhibition. For the compound `O=C(NC(c1ccccc1)c1ccc2c(c1)CCOC2)c1ccc(C(F)(F)F)[nH]c1=O` (stereo not drawn) [Compound 82, N-(isochroman-6-yl(phenyl)methyl)-2-oxo-6-(trifluoromethyl)-1,2-dihydropyridine-3-carboxamide], the IC50 was 840 nM.

For `O=C(NC(c1ccccc1)c1ccc2c(c1)COCC2)c1ccc(C(F)(F)F)[nH]c1=O` (stereo not drawn) [Compound 83, N-(isochroman-7-yl(phenyl)methyl)-2-oxo-6-(trifluoromethyl)-1,2-dihydropyridine-3-carboxamide], the IC50 is 2370 nM.

Take `O=C(NC(c1ccccc1)c1ccc2c(c1)OCC2)c1ccc(C(F)(F)F)[nH]c1=O` (stereo not drawn) [Compound 84, N-((2,3-dihydrobenzofuran-6-yl)(phenyl)methyl)-2-oxo-6-(trifluoromethyl)-1,2-dihydropyridine-3-carboxamide]: the IC50 came out at 1040 nM.

Regarding `O=C(NC(c1ccccc1)c1ccc(-c2ccncc2)cc1)c1ccc(C(F)(F)F)[nH]c1=O` (stereo not drawn) [Compound 85, 2-oxo-N-(phenyl(4-(pyridin-4-yl)phenyl)methyl)-6-(trifluoromethyl)-1,2-dihydropyridine-3-carboxamide], the IC50 is 840 nM.

`O=C(NC(c1ccccc1)c1ccc(C2CCOC2)cc1)c1ccc(C(F)(F)F)[nH]c1=O` (stereo not drawn) [Compound 86, N-(phenyl(4-(tetrahydrofuran-3-yl)phenyl)methyl)-2-oxo-6-(trifluoromethyl)-1,2-dihydropyridine-3-carboxamide]: the IC50 was 1940 nM.

Take `O=C(NC(c1ccccc1)c1ccc(C2=CCOC2)cc1)c1ccc(C(F)(F)F)[nH]c1=O` (stereo not drawn) [Compound 87, N-((4-(2,5-dihydrofuran-3-yl)phenyl)(phenyl)methyl)-2-oxo-6-(trifluoromethyl)-1,2-dihydropyridine-3-carboxamide]: the IC50 was determined as 1130 nM.

Take `O=C(NC(c1ccccc1)c1ccc(N2CCNCC2)cc1)c1ccc(C(F)(F)F)[nH]c1=O` (stereo not drawn) [Compound 88, N-(phenyl(4-(piperazin-1-yl)phenyl)methyl)-2-oxo-6-(trifluoromethyl)-1,2-dihydropyridine-3-carboxamide]: the IC50 is above 10000 nM.

In the case of `O=C(NC(c1ccccc1)c1ccc2c(c1)OCCC2)c1ccc(C(F)(F)F)[nH]c1=O` (stereo not drawn) [Compound 89, N-(chroman-7-yl(phenyl)methyl)-2-oxo-6-(trifluoromethyl)-1,2-dihydropyridine-3-carboxamide], the IC50 is 1090 nM.

As for `O=C(NC(c1ccccc1)c1ccc2c(c1)CCC2)c1ccc(C(F)(F)F)[nH]c1=O` (stereo not drawn) [Compound 90, N-((2,3-dihydro-1H-inden-5-yl)(phenyl)methyl)-2-oxo-6-(trifluoromethyl)-1,2-dihydropyridine-3-carboxamide], the IC50 is 520 nM.

On to `O=C(NC(c1ccccc1)c1ccc2c(c1)CCO2)c1ccc(C(F)(F)F)[nH]c1=O` (stereo not drawn) [Compound 91, N-((2,3-dihydrobenzofuran-5-yl)(phenyl)methyl)-2-oxo-6-(trifluoromethyl)-1,2-dihydropyridine-3-carboxamide], for which the IC50 stood at 920 nM.

Consider `O=C(NC(c1ccccc1)c1ccc(-c2cncnc2)cc1)c1ccc(C(F)(F)F)[nH]c1=O` (stereo not drawn) [Compound 92, N-(phenyl(4-(pyrimidin-5-yl)phenyl)methyl)-2-oxo-6-(trifluoromethyl)-1,2-dihydropyridine-3-carboxamide], for which the IC50 was determined as 2140 nM.

Consider `CN1CCN(c2ccc(C(NC(=O)c3ccc(C(F)(F)F)[nH]c3=O)c3ccccc3)cc2)CC1` (stereo not drawn) [Compound 95, N-((4-(4-methylpiperazin-1-yl)phenyl)(phenyl)methyl)-2-oxo-6-(trifluoromethyl)-1,2-dihydropyridine-3-carboxamide], for which the IC50 was 1460 nM and 350 nM.

Turning to `O=C(NC(c1ccccc1)c1ccc(N2CCN(CC(F)(F)F)CC2)cc1)c1ccc(C(F)(F)F)[nH]c1=O` (stereo not drawn) [Compound 96, N-(phenyl(4-(4-(2,2,2-trifluoroethyl)piperazin-1-yl)phenyl)methyl)-2-oxo-6-(trifluoromethyl)-1,2-dihydropyridine-3-carboxamide], the IC50 was 1740 nM.

For `O=C(NC(c1ccccc1)c1ccc(-c2ncccn2)cc1)c1ccc(C(F)(F)F)[nH]c1=O` (stereo not drawn) [Compound 97, 2-oxo-N-(phenyl(4-(pyrimidin-2-yl)phenyl)methyl)-6-(trifluoromethyl)-1,2-dihydropyridine-3-carboxamide], the IC50 came out at 2300 nM.

Take `NCc1ccc(C(NC(=O)c2ccc(C(F)(F)F)[nH]c2=O)c2ccccc2)cc1` (stereo not drawn) [Compound 98, N-((4-(aminomethyl)phenyl)(phenyl)methyl)-2-oxo-6-(trifluoromethyl)-1,2-dihydropyridine-3-carboxamide]: the IC50 was above 10000 nM.

On to `O=C(NC(c1ccccc1)c1ccc(C2COC2)cc1)c1ccc(C(F)(F)F)[nH]c1=O` (stereo not drawn) [Compound 99, N-((4-(oxetan-3-yl)phenyl)(phenyl)methyl)-2-oxo-6-(trifluoromethyl)-1,2-dihydropyridine-3-carboxamide], for which the IC50 amounted to 2720 nM.

Regarding `O=C(NC(c1ccccc1)c1ccc(-c2ccccn2)cc1)c1ccc(C(F)(F)F)[nH]c1=O` (stereo not drawn) [Compound 100, 2-oxo-N-(phenyl(4-(pyridin-2-yl)phenyl)methyl)-6-(trifluoromethyl)-1,2-dihydropyridine-3-carboxamide], the IC50 is 740 nM.

In the case of `O=C(NC(c1ccccc1)c1ccc(-c2cnccn2)cc1)c1ccc(C(F)(F)F)[nH]c1=O` (stereo not drawn) [Compound 101, 2-oxo-N-(phenyl(4-(pyrazin-2-yl)phenyl)methyl)-6-(trifluoromethyl)-1,2-dihydropyridine-3-carboxamide], the IC50 worked out at 1230 nM.

In the case of `CNCc1ccc(C(NC(=O)c2ccc(C(F)(F)F)[nH]c2=O)c2ccccc2)cc1` (stereo not drawn) [Compound 102, N-((4-((methylamino)methyl)phenyl) (phenyl)methyl)-2-oxo-6-(trifluoromethyl)-1,2-dihydropyridine-3-carboxamide], the IC50 is above 10000 nM.

Regarding `CN(C)Cc1ccc(C(NC(=O)c2ccc(C(F)(F)F)[nH]c2=O)c2ccccc2)cc1` (stereo not drawn) [Compound 103, N-((4-((dimethylamino)methyl)phenyl)(phenyl)methyl)-2-oxo-6-(trifluoromethyl)-1,2-dihydropyridine-3-carboxamide], the IC50 was above 10000 nM.

In the case of `O=C(NC(c1ccccc1)c1ccc(C2CCNCC2)cc1)c1ccc(C(F)(F)F)[nH]c1=O` (stereo not drawn) [Compound 104, 2-oxo-N-(phenyl(4-(piperidin-4-yl)phenyl)methyl)-6-(trifluoromethyl)-1,2-dihydropyridine-3-carboxamide], the IC50 was found to be 8650 nM.

In the case of `O=C(NC(c1ccccc1)c1ccc(C2=CCNCC2)cc1)c1ccc(C(F)(F)F)[nH]c1=O` (stereo not drawn) [Compound 105, 2-oxo-N-(phenyl(4-(1,2,3,6-tetrahydropyridin-4-yl)phenyl)methyl)-6-(trifluoromethyl)-1,2-dihydropyridine-3-carboxamide], the IC50 is 4280 nM.

In the case of `CN1CCC(c2ccc(C(NC(=O)c3ccc(C(F)(F)F)[nH]c3=O)c3ccccc3)cc2)CC1` (stereo not drawn) [Compound 106, N-((4-(1-methylpiperidin-4-yl)phenyl)(phenyl)methyl)-2-oxo-6-(trifluoromethyl)-1,2-dihydropyridine-3-carboxamide], the IC50 is above 10000 nM.

Regarding `O=C(NC(c1ccccc1)c1ccc2c(c1)CCCN2)c1ccc(C(F)(F)F)[nH]c1=O` (stereo not drawn) [Compound 107, 2-oxo-N-(phenyl(1,2,3,4-tetrahydroquinolin-6-yl)methyl)-6-(trifluoromethyl)-1,2-dihydropyridine-3-carboxamide], the IC50 is 960 nM.
